The record followed here is US11364248B2 (AMGEN INC., priority 2017, dated 2022).

One test addresses Mcl-1/Bim interaction (Homo sapiens (Human), UniProt Q07820). Description: Cell Free Mcl-1: Bim Affinity Assay (Mcl-1 HTRF). Type of test: binding. The note with it: TR-FRET, recombinant human Mcl-1(171-327), biotin-Bim(51-76); read-out: Mel-1 HTRF IC50. In outline:
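TR-FRET competition assay: 0.1 nM His-tagged human Mcl-1(171-327) and 0.05 nM biotin-Bim(51-76) were pre-incubated 60 min with compound in 20 mM Hepes pH 7.5, 150 mM NaCl, Brij35, 1 mM DTT, then with Eu-anti-His/streptavidin-Xlent overnight. The 665/620 nm ratio was fitted by four-parameter model to IC50 (duplicates).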
Background: In TR-FRET formats the signal depends on donor and acceptor labels being close together.

The test system of another test is OPM-2. The experiment in a line: Cell Viability Assay (OPM-2 10 FBS). Type of test: cell-based, human. The note with it: OPM-2 cells, CellTiter-Glo, read-out: OPM-2 10% FBS IC50 IP. In outline: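 OPM-2 myeloma cells seeded at 3000 cells/well in RPMI 1640 with 10% FBS and exposed to serially diluted compounds for 16 h at 37° C., 5% CO2.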
For orientation: ATP-based viability assays read luminescence as a measure of living cells.

Where two headings read alike, the source gives them in different places.

Chain of Mcl-1/Bim interaction (Q07820 171-327): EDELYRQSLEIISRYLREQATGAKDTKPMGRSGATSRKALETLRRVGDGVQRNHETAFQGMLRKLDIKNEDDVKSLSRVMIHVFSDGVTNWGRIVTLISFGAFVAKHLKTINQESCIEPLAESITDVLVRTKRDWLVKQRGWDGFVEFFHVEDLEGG

One may read the IC50 as the concentration at which inhibition is half-maximal. Regarding `C[C@@H]1[C@@H](C)CCC[C@](C)([C@H]2OC[C@@H](N(C)C)CO2)[C@@H]2CC[C@H]2CN2C[C@@]3(CCCc4cc(Cl)ccc43)COc3ccc(cc32)C(=O)NS1(=O)=O` [Example 65, (1S,3′R,6′R,7′S,11′S,12′R)-6-chloro-7′-(cis-5-(dimethylamino)-1,3-dioxan-2-yl)-7′,11′,12′-trimethyl-3,4-dihydro-2H,15′H-spiro[naphthalene-1,22′-[20]oxa[13]thia[1,14]diazatetracyclo [14.7.2.0~3,6~.0~19,24~]pentacosa[16,18,24]trien]-15′-one 13′,13′-dioxide], the IC50 on Mcl-1/Bim interaction worked out at 0.00502 µM; with OPM-2 (Homo sapiens, OPM-2, 16 h), 1.56 µM.

For the molecule `C[C@@H]1[C@@H](C)CCC[C@H]([C@H]2OC[C@H](O)CO2)[C@@H]2CC[C@H]2CN2C[C@@]3(CCCc4cc(Cl)ccc43)COc3ccc(cc32)C(=O)NS1(=O)=O` [Example 14, (1S,3′R,6′R,7′S,11′S,12′R)-6-chloro-7′-(trans-5-hydroxy-1,3-dioxan-2-yl)-11′,12′-dimethyl-3,4-dihydro-2H,15′H-spiro[naphthalene-1,22′-[20]oxa[13]thia[1,14]diazatetracyclo [14.7.2.0~3,6~.0~19,24~]pentacosa[16,18,24]trien]-15′-one 13′,13′-dioxide], the values for the IC50 on Mcl-1/Bim interaction and in the test with OPM-2 (16 h) were 0.000765 µM and 1.99 µM, respectively.

As for `CCN(C)[C@H]1CO[C@@H]([C@H]2CCC[C@H](C)[C@@H](C)S(=O)(=O)NC(=O)c3ccc4c(c3)N(C[C@@H]3CC[C@H]32)C[C@@]2(CCCc3cc(Cl)ccc32)CO4)OC1` [Example 66, (1S,3′R,6′R,7′S,11′S,12′R)-6-chloro-7′-(cis-5-(ethyl(methyl)amino)-1,3-dioxan-2-yl)-11′,12′-dimethyl-3,4-dihydro-2H,15′H-spiro[naphthalene-1,22′-[20]oxa[13]thia[1,14]diazatetracyclo [14.7.2.0~3,6~.0~19,24~]pentacosa[16,18,24]trien]-15′-one 13′,13′-dioxide], the IC50 on Mcl-1/Bim interaction was 0.00129 µM; in the test on OPM-2 (Homo sapiens, OPM-2, 16 h), 0.326 µM.

As for `C[C@@H]1[C@@H](C)CCC[C@@H]([C@H]2OC[C@@H](N3CC(F)C3)CO2)[C@@H]2CC[C@H]2CN2C[C@@]3(CCCc4cc(Cl)ccc43)COc3ccc(cc32)C(=O)NS1(=O)=O` (single isomer, unassigned) [Example 50], the figures for the IC50 on Mcl-1/Bim interaction and in the test with OPM-2 (16 h) were 0.000492 µM and 0.126 µM, respectively.

For the molecule `C[C@@H]1[C@@H](C)CCC[C@@H]([C@H]2OC[C@H](CN(C)C)O2)[C@@H]2CC[C@H]2CN2C[C@@]3(CCCc4cc(Cl)ccc43)COc3ccc(cc32)C(=O)NS1(=O)=O` (single isomer, unassigned) [Example 34], the IC50 on Mcl-1/Bim interaction worked out at 0.0111 µM; with OPM-2 (16 h), 5.83 µM.

Take `CC[C@@H]1CCCC[C@H]([C@H]2OC[C@@H](N(C)C)CO2)C2CC[C@H]2CN2C[C@@]3(CCCc4cc(Cl)ccc43)COc3ccc(cc32)C(=O)NS1(=O)=O` (stereo in doubt) [Example 73, (1S,3′R,6′S,7′S,12′R)-6-chloro-7′-(cis-5-(dimethylamino)-1,3-dioxan-2-yl)-12′-ethyl-3,4-dihydro-2H,15′H-spiro[naphthalene-1,22′-[20]oxa[13]thia[1,14]diazatetracyclo [14.7.2.0~3,6~.0~19,24~]pentacosa[16,18,24]trien]-15′-one 13′,13′-dioxide]: the IC50 came out at 0.000657 µM on Mcl-1/Bim interaction and 0.915 µM in the test with OPM-2 (16 h).

As to `C[C@@H]1[C@@H](C)CCC[C@H]([C@H]2O[C@H]3CNC[C@H]3O2)[C@@H]2CC[C@H]2CN2C[C@@]3(CCCc4cc(Cl)ccc43)COc3ccc(cc32)C(=O)NS1(=O)=O` (stereo in doubt) [Example 35, (1S,3′R,6′R,7′R,11′S,12′R)-6-chloro-11′,12′-dimethyl-7′-((2r,3aR,6aS)-tetrahydro-3aH-[1,3]dioxolo[4,5-c]pyrrol-2-yl)-3,4-dihydro-2H,15′H-spiro[naphthalene-1,22′-[20]oxa[13]thia[1,14]diazatetracyclo [14.7.2.0~3,6~.0~19,24~]pentacosa[16,18,24]trien]-15′-one 13′,13′-dioxide], the IC50 is 0.000829 µM on Mcl-1/Bim interaction and 0.304 µM in the test on OPM-2 (16 h).

For `CN[C@H]1CO[C@H]([C@H]2CCC[C@H](C)[C@@H](C)S(=O)(=O)NC(=O)c3ccc4c(c3)N(C[C@@H]3CC[C@H]32)C[C@@]2(CCCc3cc(Cl)ccc32)CO4)OC1` [Example 48, (1S,3′R,6′R,7′S,11′S,12′R)-6-chloro-11′,12′-dimethyl-7′-(trans-5-(methylamino)-1,3-dioxan-2-yl)-3,4-dihydro-2H,15′H-spiro[naphthalene-1,22′-[20]oxa[13]thia[1,14]diazatetracyclo [14.7.2.0~3,6~.0~19,24~]pentacosa[16,18,24]trien]-15′-one 13′,13′-dioxide], the results for the IC50 at Mcl-1/Bim interaction and in the test on OPM-2 (16 h) were 0.00059 µM and 0.184 µM, respectively.

As for `COCCN(C)[C@H]1CO[C@@H]([C@H]2CCC[C@H](C)[C@@H](C)S(=O)(=O)NC(=O)c3ccc4c(c3)N(C[C@@H]3CC[C@H]32)C[C@@]2(CCCc3cc(Cl)ccc32)CO4)OC1` [Example 71, (1S,3′R,6′R,7′S,11′S,12′R)-6-chloro-7′-(cis-5-((2-methoxyethyl)(methyl)amino)-1,3-dioxan-2-yl)-11′,12′-dimethyl-3,4-dihydro-2H,15′H-spiro[naphthalene-1,22′-[20]oxa[13]thia[1,14]diazatetracyclo [14.7.2.0~3,6~.0~19,24~]pentacosa[16,18,24]trien]-15′-one 13′,13′-dioxide], the figures for the 50% inhibitory concentration (IC50) at Mcl-1/Bim interaction and in the test with OPM-2 (16 h) were 0.000217 µM and 0.09 µM, respectively.

On to `C[C@@H]1[C@@H](C)CCC[C@H]([C@H]2OC[C@](N)(CO)CO2)[C@@H]2CC[C@H]2CN2C[C@@]3(CCCc4cc(Cl)ccc43)COc3ccc(cc32)C(=O)NS1(=O)=O` [Example 79, (1S,3′R,6′R,7′S,11′S,12′R)-7′-(cis-5-amino-5-(hydroxymethyl)-1,3-dioxan-2-yl)-6-chloro-11′,12′-dimethyl-3,4-dihydro-2H,15′H-spiro[naphthalene-1,22′-[20]oxa[13]thia[1,14]diazatetracyclo [14.7.2.0~3,6~.0~19,24~]pentacosa[16,18,24]trien]-15′-one 13′,13′-dioxide], for which the IC50 at Mcl-1/Bim interaction stood at 0.000704 µM; in the test with OPM-2 (16 h), 0.829 µM.
